The values that follow come from article PMC4830892, “A microarray-based approach to evaluate the functional significance of protein-binding motifs” (Analytical and Bioanalytical Chemistry, 2016).

One may read the Kd as the concentration at which binding is half-saturated. Lower therefore signals tighter binding.

Non-standard residues stand in square brackets, D forms with d. Residues, ends and D or L forms follow the SMILES beside them. pY = N[C@@H](Cc1ccc(OP(=O)(O)O)cc1)C(=O)O; Ahx = NCCCCCC(=O)O

Test [1] deals with α-phosphotyrosine antibody (α-pTyr 100). Put plainly: Titration of α-pY antibody on peptide microarrays. Format: binding. Conditions: for Kd: peptide microarray, α-pY antibody 0.06 to 6.66 nM, 3 h at 4 °C, indirect immunofluorescence (Alexa633), bimolecular binding isotherm (Eq. 1), average ± standard deviation, six independent experiments; for α-pY titration curve / binding: result in words, R^2 of 0.8 as cutoff for a binder. The protocol:
(§1) Peptides that correspond to known interaction motifs involved in the formation of protein complexes in T cell signalling were purchased from EMC microcollections (Tübingen, Germany). All peptides carried an extra cysteine residue and a free N-terminus for immobilisation on the microarray substrates and a C-terminal amidation (see Electronic Supplementary Material (ESM), Table S1).
(§2) For generation of microarrays, peptide stock solutions (3 mM) in DMF were diluted 30 times with phosphate buffer (100 mM, pH 8) supplemented with 0.006 % (v/v) Triton X-100. N-Hydroxysuccinimide-preactivated slides served as substrates for immobilisation (Nexterion Slide H, Schott Nexterion/Peq-Lab, Erlangen, Germany) using a Nano-Plotter NP2.0 (GeSIM, Großerkmannshof, Germany), which employs piezo-driven pipetting tips to dispense peptide solutions. Microarray slides comprised 16 subarrays of doublets of each peptide. For each peptide, a volume of 1.2 nl was dispensed at a centre-to-centre spacing of 500 μm. During printing, temperature was maintained at 15 °C and air humidity at 65 %.
(§3) Sixteen incubation chambers with identical subarrays consisting of peptides derived from binding motifs of signalling proteins (see ESM Table S1) were generated by attaching a clip-on frame to the microarray substrate (ProPlate Multiarray System, Grace Biolabs, Molecular Probes, Eugene, OR, USA). The typical incubation volume for the subarrays was 50 μl. Microarrays were either incubated with an α-pY antibody (α-pTyr 100, 9411, Cell Signalling, Frankfurt am Main, Germany) at the indicated concentrations or co-incubated with cell lysate at the indicated concentrations for 3 h at 4 °C. Additionally, in another set of experiments, recombinant GRB2-SH2 was incubated on microarrays alone or co-incubated with cell lysate employing an α-penta HIS antibody (34600, Qiagen, Hilden, Germany) for the detection of His-tagged GRB2-SH2.
(§4) After incubation, microarrays were washed three times with washing buffer (PBS, 0.05 % (w/v) BSA, 0.05 % (w/v) Tween-20). For the detection of signals, microarrays were incubated with a secondary α-mouse antibody conjugated with Alexa633 (A-21050, Invitrogen) at a concentration of 1 μg/ml for 15 min at RT followed by a last washing step with washing buffer. Microarrays were dried with nitrogen and scanned using a ProScanArray (PerkinElmer Life Sciences, Waltham, Massachusetts), and the data were analysed using ArrayPro Analyzer software (Media Cybernetics, Silver Spring, USA) as described before. Final data represented the mean signal intensities corrected for the median of a ring-shaped local background surrounding the respective peptide spot. Titrations with α-pY antibody and GRB2-SH2 were performed to calculate dissociation constants (see below).
The resulting titration curves were fitted with Origin (OriginLab Corporation, v.6.1057, Northampton, USA) using a binding isotherm for a bimolecular interaction (Eq. 1):1 Fabs=Fmaxprot/Kd+prot Fabs represents the intensity of a microarray spot after background correction and [prot] the concentration of the titrated binder. Kd and Fmax were obtained from the fits.
To render this approach quantitative, first the affinities of the α-pY antibody towards the phosphotyrosine motifs of the microarrays were determined. […] The titration curves were fitted with a binding isotherm for a bimolecular interaction (Eq. 1, Fig. 2a, Table 1). In general, a coefficient of determination (R^2) of 0.8 was used as a cutoff in order to score a peptide as a binder. […] Regarding the poly-proline motif (PP) containing peptides present on the microarray, only on the peptide GAB2-509 in five experiments, a titration curve with an R^2 > 0.8 could be generated.

For test [2], the system named is proteins in Jurkat cell lysate (total cellular proteome). Put plainly: Competition of α-pY antibody binding with Jurkat cell lysate on peptide microarrays. To be noted: for Kd: from EC50 and Kd α-pY by Cheng-Prusoff equation (Eq. 4), ± standard deviation. The protocol: as §1, §2
Jurkat T cell leukaemia cells were maintained in RPMI 1640 medium (PAN-Biotech, Aisenbach, Germany) supplemented with 10 % foetal calf serum at 37 °C in 5 % CO2. For the preparation of lysates, cells were resuspended in lysis buffer (1 % Triton X-100, 50 mM n-octyl-D-glucopyranoside (Fluka, Taufkirchen, Germany), 20 mM Tris, 1 mM EDTA, 150 mM NaCl, 1 mM Na3VO4, pH 7.5, and complete protease inhibitor cocktail (Roche Applied Science, Mannheim, Germany)). Incubation on ice for 1 h was followed by centrifugation at 20,000×g at 4 °C for 15 min to remove cell debris. Transmembrane proteins were extracted from lipid rafts by using N-octyl-D-glucopyranoside. Protein concentrations were measured by Bradford Assay.
as §3, §4
For determination of EC50 values for competition with cell lysate, curves were fitted according to2 y=y0+Ae^−x/t with y0 as the signal intensity of the α-pY antibody or the recombinant GRB2-SH2 domain without cell lysate, A the amplitude, x the protein concentration in lysate, and t the decay constant. […]

Test [3] deals with SH2 domain of GRB2 (GRB2-SH2). To be noted: Kd values of GRB2-SH2 described in recently published manuscript; ref [14]; cited from earlier work. The text has this: In contrast, the data points for LATpY191 and SHP1pY564, and SigpY437, ZAPpY319 and CDζpY72/83 were above or below the linear correlation defined by the first four peptides. […] SigpY437, in contrast, is a poor binder for which already low concent ...

As for `CC(C)C[C@H](NC(=O)[C@@H](NC(=O)[C@H](CC(=O)O)NC(=O)[C@H](Cc1ccc(OP(=O)(O)O)cc1)NC(=O)[C@H](CCC(=O)O)NC(=O)[C@H](CCC(=O)O)NC(=O)[C@H](CCCNC(=N)N)NC(=O)[C@H](CCCNC(=N)N)NC(=O)CNC(=O)[C@H](CC(C)C)NC(=O)[C@H](CC(N)=O)NC(=O)[C@H](CC(C)C)NC(=O)[C@H](CCC(=O)O)NC(=O)[C@H](CC(N)=O)NC(=O)[C@H](Cc1ccc(OP(=O)(O)O)cc1)NC(=O)[C@H](CC(C)C)NC(=O)[C@H](CCC(N)=O)NC(=O)[C@H](CC(N)=O)NC(=O)CCCCCNC(=O)[C@@H](N)CS)C(C)C)C(N)=O` [CD3ζpY72/83] (H-C[Ahx]NQL[pY]NELNLGRREE[pY]DVL-NH2), the Kd in test [1] was 0.69 ± 0.61 nM; in test [2], 25000 ± 27000 nM.

`CC(C)[C@H](NC(=O)[C@H](CC(=O)O)NC(=O)[C@H](CC(=O)O)NC(=O)[C@H](Cc1ccc(OP(=O)(O)O)cc1)NC(=O)[C@@H](NC(=O)[C@H](CCC(=O)O)NC(=O)[C@H](CCC(N)=O)NC(=O)[C@H](CC(=O)O)NC(=O)[C@H](CC(=O)O)NC(=O)[C@H](CCC(=O)O)NC(=O)[C@@H](N)CS)C(C)C)C(=O)N[C@@H](C)C(=O)N[C@@H](CCC(=O)O)C(=O)N[C@@H](CCC(N)=O)C(=O)N[C@@H](CC(=O)O)C(N)=O` [FYBpY595] (H-CEDDQEV[pY]DDVAEQD-NH2): the dissociation constant (Kd) in test [1] amounted to 0.77 ± 0.28 nM.

On to `CC[C@H](C)[C@H](NC(=O)CNC(=O)[C@H](CC(=O)O)NC(=O)[C@H](Cc1ccc(OP(=O)(O)O)cc1)NC(=O)[C@@H](NC(=O)[C@H](CC(=O)O)NC(=O)[C@H](CC(=O)O)NC(=O)[C@H](CC(=O)O)NC(=O)[C@@H](N)CS)[C@@H](C)CC)C(=O)N[C@@H](CCC(=O)O)C(=O)N[C@@H](CCC(=O)O)C(=O)N[C@@H](CCC(=O)O)C(=O)N[C@@H](CC(=O)O)C(N)=O` [FYBpY625] (H-CDDDI[pY]DGIEEED-NH2), for which the Kd in test [1] was found to be 0.46 ± 0.15 nM; in test [2] it was 17000 ± 13000 nM.

Regarding `CSCC[C@H](NC(=O)[C@H](CC(=O)O)NC(=O)[C@H](CC(C)C)NC(=O)[C@@H](N)CS)C(=O)NCC(=O)N[C@@H](CC(=O)O)C(=O)N[C@@H](CCC(=O)O)C(=O)N[C@H](C(=O)N[C@@H](Cc1ccc(OP(=O)(O)O)cc1)C(=O)N[C@@H](CC(=O)O)C(=O)N[C@@H](CC(=O)O)C(=O)N[C@H](C(=O)N[C@@H](CC(=O)O)C(=O)N[C@H](C(=O)N[C@@H](CO)C(=O)N[C@@H](CC(=O)O)C(=O)N[C@@H](Cc1ccccc1)C(N)=O)[C@@H](C)O)C(C)C)C(C)C` [FYBpY651] (H-CLDMGDEV[pY]DDVDTSDF-NH2), the Kd turned out to be 0.28 ± 0.09 nM in test [1] and 12000 ± 9000 nM in test [2].

On to `CC[C@H](C)[C@H](NC(=O)[C@H](CC(=O)O)NC(=O)[C@H](CC(=O)O)NC(=O)[C@H](Cc1ccc(OP(=O)(O)O)cc1)NC(=O)[C@@H](NC(=O)[C@H](CCC(=O)O)NC(=O)CNC(=O)[C@H](CC(=O)O)NC(=O)[C@H](CC(N)=O)NC(=O)[C@@H](N)CS)[C@@H](C)CC)C(=O)N[C@@H](C)C(=O)N[C@@H](CC(=O)O)C(=O)NCC(N)=O` [FYBpY771] (H-CNDGEI[pY]DDIADG-NH2), for which the Kd in test [1] was determined as 0.5 ± 0.23 nM; in test [2], 5000 ± 1000 nM. In addition, in test [2] (competition of α-pY with cell lysate, FYB peptides), the “affinity for / binding to cellular proteome (in words)” value is listed as “highest affinity of all four FYB peptides”.

Regarding `CC(C)C[C@H](NC(=O)[C@H](Cc1ccc(OP(=O)(O)O)cc1)NC(=O)CNC(=O)[C@@H]1CCCN1C(=O)[C@H](CC(N)=O)NC(=O)[C@H](Cc1c[nH]cn1)NC(=O)[C@H](Cc1ccc(O)cc1)NC(=O)[C@H](CC(=O)O)NC(=O)[C@H](CC(=O)O)NC(=O)[C@H](CCC(=O)O)NC(=O)[C@H](CC(=O)O)NC(=O)[C@H](CCC(=O)O)NC(=O)[C@@H](N)CS)C(=O)N[C@H](C(=O)N[C@H](C(=O)N[C@@H](CC(C)C)C(=O)N1CCC[C@H]1C(=O)N[C@@H](CC(=O)O)C(=O)N[C@@H](CO)C(=O)N[C@H](C(=O)N1CCC[C@H]1C(N)=O)[C@@H](C)O)C(C)C)C(C)C` [LATpY132] (H-CEDEDDYHNPG[pY]LVVLPDSTP-NH2), the equilibrium dissociation constant (Kd) in test [1] is 0.41 ± 0.38 nM; in test [2] it was 11000 ± 13000 nM. For the same molecule, the “binding to GRB2 / GRB2-SH2 (in words)” value in test [3] is recorded as “good binder”.

As for `CC(C)C[C@H](NC(=O)[C@H](CCC(=O)O)NC(=O)[C@H](CCC(N)=O)NC(=O)[C@H](CC(C)C)NC(=O)[C@H](CC(N)=O)NC(=O)[C@H](CCC(=O)O)NC(=O)[C@H](Cc1ccc(OP(=O)(O)O)cc1)NC(=O)[C@H](CC(=O)O)NC(=O)[C@@H]1CCCN1C(=O)[C@H](C)NC(=O)CNC(=O)[C@H](CCC(=O)O)NC(=O)[C@H](CCC(=O)O)NC(=O)[C@H](CCC(=O)O)NC(=O)[C@@H](NC(=O)[C@H](CCC(=O)O)NC(=O)[C@@H](N)CS)C(C)C)C(=O)N[C@@H](CC(N)=O)C(N)=O` [LATpY226] (H-CEVEEEGAPD[pY]ENLQELN-NH2), the dissociation constant (Kd) stood at 0.44 ± 0.27 nM in test [1] and 15000 ± 11000 nM in test [2]. In test [3], the “binding to GRB2 / GRB2-SH2 (in words)” value is listed as “good binder”.

Regarding `CSCC[C@H](NC(=O)[C@@H]1CCCN1C(=O)[C@H](CC(N)=O)NC(=O)[C@H](C)NC(=O)[C@H](CCC(=O)O)NC(=O)[C@@H](NC(=O)[C@H](Cc1ccc(OP(=O)(O)O)cc1)NC(=O)[C@H](Cc1ccccc1)NC(=O)CNC(=O)[C@@H]1CCCN1C(=O)[C@H](CC(N)=O)NC(=O)[C@H](CCCNC(=N)N)NC(=O)CNC(=O)[C@H](CCC(=O)O)NC(=O)[C@@H](N)CS)C(C)C)C(=O)N1CCC[C@H]1C(=O)N[C@H](C(N)=O)[C@@H](C)O` [PLCγpY783] (H-CEGRNPGF[pY]VEANPMPT-NH2), the dissociation constant (Kd) in test [1] came to 0.55 ± 0.33 nM; in test [2], 7000 ± 2000 nM. The “binding to GRB2 / GRB2-SH2 (in words)” value in test [3] is “good binder”.

As to `CC(C)C[C@H](NC(=O)[C@H](CCC(=O)O)NC(=O)[C@H](CCC(=O)O)NC(=O)[C@@H]1CCCN1C(=O)[C@H](CC(=O)O)NC(=O)[C@H](CO)NC(=O)[C@H](Cc1ccc(OP(=O)(O)O)cc1)NC(=O)[C@@H]1CCCN1C(=O)[C@H](CO)NC(=O)[C@H](CCC(=O)O)NC(=O)[C@H](Cc1ccc(O)cc1)NC(=O)[C@@H](NC(=O)[C@@H](N)CS)C(C)C)C(=O)N[C@@H](CCCCN)C(=O)N[C@@H](CC(=O)O)C(N)=O` [ZAPpY319] (H-CVYESP[pY]SDPEELKD-NH2), the dissociation constant (Kd) was determined as 0.6 ± 0.46 nM in test [1] and 26000 ± 32000 nM in test [2].

As for CGNKGRSGPLPPVPLGIA-NH2 [WAS334], in test [1], the “α-pY titration curve / binding” value was “no titration curves could be generated”.

Consider CLDIQDKPPAPPMRNT-NH2 [PAK6], for which, in test [1], the “α-pY titration curve / binding” value was “no titration curves could be generated”.
